Measurements from US8101605B2, “SHIP1 modulators and methods related thereto” (Aquinox Pharmaceuticals Inc., priority 2009, dated 2012).

Target: T1, His-hSHIP1 enzyme (Homo sapiens, UniProt Q92835)
T1 sequence (Q92835 1-1189): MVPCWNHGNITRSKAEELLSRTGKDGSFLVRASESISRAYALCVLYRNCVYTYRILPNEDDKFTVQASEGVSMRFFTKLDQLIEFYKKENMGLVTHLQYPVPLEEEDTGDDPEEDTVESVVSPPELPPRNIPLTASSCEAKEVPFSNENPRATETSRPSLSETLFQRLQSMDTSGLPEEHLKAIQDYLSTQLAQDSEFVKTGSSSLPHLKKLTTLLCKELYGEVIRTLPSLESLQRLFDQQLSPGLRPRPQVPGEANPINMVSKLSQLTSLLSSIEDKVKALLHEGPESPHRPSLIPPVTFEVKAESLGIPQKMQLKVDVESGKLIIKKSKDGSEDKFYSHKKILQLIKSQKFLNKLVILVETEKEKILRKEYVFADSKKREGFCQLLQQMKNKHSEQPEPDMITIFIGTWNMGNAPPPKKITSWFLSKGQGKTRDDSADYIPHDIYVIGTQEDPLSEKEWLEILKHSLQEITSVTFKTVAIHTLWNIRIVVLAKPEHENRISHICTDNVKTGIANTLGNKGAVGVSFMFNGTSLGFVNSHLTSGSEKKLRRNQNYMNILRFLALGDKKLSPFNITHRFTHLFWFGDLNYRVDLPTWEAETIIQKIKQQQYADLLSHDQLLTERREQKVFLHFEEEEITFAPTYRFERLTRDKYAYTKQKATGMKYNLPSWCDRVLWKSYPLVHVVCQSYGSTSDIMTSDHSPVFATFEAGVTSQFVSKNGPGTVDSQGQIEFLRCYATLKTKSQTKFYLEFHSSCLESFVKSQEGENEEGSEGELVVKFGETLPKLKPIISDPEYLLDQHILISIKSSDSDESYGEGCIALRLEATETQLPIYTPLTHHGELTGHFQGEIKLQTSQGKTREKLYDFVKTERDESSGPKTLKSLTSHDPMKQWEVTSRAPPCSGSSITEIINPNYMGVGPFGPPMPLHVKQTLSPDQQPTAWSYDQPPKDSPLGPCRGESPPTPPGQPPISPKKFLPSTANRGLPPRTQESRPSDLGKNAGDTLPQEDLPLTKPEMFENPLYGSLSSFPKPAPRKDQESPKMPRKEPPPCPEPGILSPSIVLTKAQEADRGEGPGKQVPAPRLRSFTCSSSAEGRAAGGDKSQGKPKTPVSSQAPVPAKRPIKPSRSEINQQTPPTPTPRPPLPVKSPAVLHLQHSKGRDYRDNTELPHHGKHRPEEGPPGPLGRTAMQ
Test: His-hSHIP1 phosphatase activity assay (IP4 substrate, Biomol Green)
Type: biochemical
Settings: percentage increase relative to background; concentrations ≦300 μM
Protocol: Test compounds were dissolved in 95% ethanol to form stock solutions. Before screening, the stock solutions were diluted with Phosphatase Assay Buffer (20 mM Tris-HCL, 10 mM MgCl2 pH 7.5, 0.02% Tween 20) to form working assay solutions that contained 10% ethanol. The assay was carried out on 96-well microtiter plates using a modified procedure of that reported by Ong et al., Blood 110, 1942-1949, 2007 and Yang et al., Org Lett 7, 1073-1076, 2005, both of which references are incorporated herein by reference in their entirety.
Each reaction contained 5 μL of His-hSHIP1 enzyme (15-20 ng), 10 μL of the substrate, 1,3,4,5-inositol tetrakisphosphate (IP4; 50 μM final), 5 μL of Phosphatase Assay Buffer, and 5 μL of test compound at various concentrations in 10% ethanol (0-300 μM final). Control blanks were also prepared by replacing His-hSHIP1 enzyme, IP4, or test compounds with Phosphatase Assay Buffer. After adding the reaction components in a 96-well microtiter plate on ice, the reaction was mixed by briefly shaking the plate vigorously. The reaction was then incubated at 37° C. for 15 min with gentle shaking followed by addition of 100 μL of Biomol Green Reagent (BIOMOL, PA, USA) to terminate the reaction. The free phosphate released from IP4 by His-hSHIP1 bound to the Biomol Green Reagent, turning the solution green in colour. After incubating the mixture for 20 min at room temperature for colour development, the absorbance was read with a SpectraMax Plus 96-well plate reader (Molecular Devices, Sunnyvale, Calif., USA) at a wavelength of 650 nm.
Percent (%) activation in Table 2 is expressed as a percentage increase relative to background. Scoring is expressed as follows: + (<50%); ++ (≧50% but <65%); +++ (≧65%).

Question: With `CC1(C)CCC[C@]2(C)[C@H]3CS(=O)(=O)c4cc(O)cc(C#N)c4[C@]3(C)CC[C@@H]12` [compound 79, (1R,10R,11S,16S)-5-hydroxy-1,11,15,15-tetramethyl-8,8-dioxo-8λ^6-thiatetracyclo[8.8.0.0^2,7.0^11,16]octadeca-2,4,6-triene-3-carbonitrile] as the compound, how does the “Scoring: percent (%) activation of His-hSHIP1 enzyme” value (“Scoring: percent (%) activation” below) read?
Answer: + (<50%)

Question: With `COC(=O)CNC(=O)c1cc(O)cc2c1[C@]1(C)CC[C@H]3C(C)(C)CCC[C@]3(C)[C@H]1CS2(=O)=O` [compound 90, methyl 2-{[(1R,10R,11S,16S)-5-hydroxy-1,11,15,15-tetramethyl-8,8-dioxo-8λ^6-thiatetracyclo[8.8.0.0^2,7.0^11,16]octadeca-2,4,6-trien-3-yl]formamido}acetate] as the compound, how does the “Scoring: percent (%) activation” value read?
Answer: + (<50%)

Question: With `COc1cc(O)c2c(c1)SC[C@@H]1[C@@]3(C)CCCC(C)(C)[C@@H]3CC[C@@]21C` [Compound No. 29, (1R,10R,11S,16S)-5-methoxy-1,11,15,15-tetramethyl-8-thiatetracyclo[8.8.0.0^2,7.0^11,16]octadeca-2,4,6-trien-3-ol] as the compound, how does the “Scoring: percent (%) activation” value read?
Answer: ++ (≧50% but <65%)

Question: Which “Scoring: percent (%) activation” value does the source give for `CN1CCN(C(=O)c2cc(O)cc3c2[C@]2(C)CC[C@H]4C(C)(C)CCC[C@]4(C)[C@H]2CS3(=O)=O)CC1` [compound 94, (1R,10R,11S,16S)-5-hydroxy-1,11,15,15-tetramethyl-3-[(4-methylpiperazin-1-yl)carbonyl]-8λ^6-thiatetracyclo[8.8.0.0^2,7.0^11,16]octadeca-2,4,6-triene-8,8-dione] here?
Answer: + (<50%)

Question: Which “Scoring: percent (%) activation” value does the source give for `CC1(C)CCC[C@]2(C)[C@H]3CS(=O)(=O)c4cc(C(=O)NCC(=O)O)cc(O)c4[C@]3(C)CC[C@@H]12` [compound 93, 2-{[(1R,10R,11S,16S)-3-hydroxy-1,11,15,15-tetramethyl-8,8-dioxo-8λ^6-thiatetracyclo[8.8.0.0^2,7.0^11,16]octadeca-2,4,6-trien-5-yl]formamido}acetic acid] here?
Answer: + (<50%)

Question: Which “Scoring: percent (%) activation” value does the source give for `CC1(C)CCC[C@]2(C)[C@H]3CSc4cc(O)cc(O)c4[C@]3(C)CC[C@@H]12` [Compound No. 26, (1R,10R,11S,16S)-1,11,15,15-tetramethyl-8-thiatetracyclo[8.8.0.0^2,7.0^11,16]octadeca-2,4,6-triene-3,5-diol] here?
Answer: + (<50%)

Question: Which “Scoring: percent (%) activation” value does the source give for `CC1(C)CCC[C@]2(C)[C@H]3CS(=O)(=O)c4cc(OCC(=O)O)cc(O)c4[C@]3(C)CC[C@@H]12` [compound 105, 2-{[(1R,10R,11S,16S)-3-hydroxy-1,11,15,15-tetramethyl-8,8-dioxo-8^6-thiatetracyclo[8.8.0.0^2,7.0^11,16]octadeca-2,4,6-trien-5-yl]oxy}acetic acid] here?
Answer: + (<50%)

Question: How did the “Scoring: percent (%) activation” value turn out when `CC1(C)CCC[C@]2(C)[C@H]3CS(=O)(=O)c4cc(C(=O)O)cc(C(=O)O)c4[C@]3(C)CC[C@@H]12` [compound 85, (1R,10R,11S,16S)-1,11,15,15-tetramethyl-8,8-dioxo-8λ^6-thiatetracyclo[8.8.0.0^2,7.0^11,16]octadeca-2,4,6-triene-3,5-dicarboxylic acid] was run?
Answer: + (<50%)

Question: `CNC(=O)c1cc(O)cc2c1[C@]1(C)CC[C@H]3C(C)(C)CCC[C@]3(C)[C@H]1CS2` [compound 76, (1R,10R,11S,16S)-5-hydroxy-N,1,11,15,15-pentamethyl-8-thiatetracyclo-[8.8.0.0^2,7.0^11,16]octadeca-2,4,6-triene-3-carboxamide] was tested. Which “Scoring: percent (%) activation” value did it give?
Answer: + (<50%)

Question: Which “Scoring: percent (%) activation” value does the source give for `CC1(C)CCC[C@]2(C)[C@H]3C[S+]([O-])c4cc(O)cc(O)c4[C@]3(C)CC[C@@H]12` (stereo partly drawn) [Compound No. 27, (1R,10R,11S,16S)-3,5-dihydroxy-1,11,15,15-tetramethyl-8-thiatetracyclo[8.8.0.0^2,7.0^11,16]octadeca-2,4,6-trien-8-one] here?
Answer: ++ (≧50% but <65%)

Question: `CC1(C)CCC[C@]2(C)[C@H]3CS(=O)(=O)c4cc(O)cc(C(=O)NCC(=O)O)c4[C@]3(C)CC[C@@H]12` [compound 91, 2-{[(1R,10R,11S,16S)-5-hydroxy-1,11,15,15-tetramethyl-8,8-dioxo-8λ^6-thiatetracyclo[8.8.0.0^2,7.0^11,16]octadeca-2,4,6-trien-3-yl]formamido}acetic acid] was tested. Which “Scoring: percent (%) activation” value did it give?
Answer: + (<50%)

Question: With `COc1cc(C)c2c(c1)OC[C@@H]1[C@@]3(C)CCCC(C)(C)[C@@H]3CC[C@@]21C` [Compound No. 5, (1R,10R,11S,16S)-5-methoxy-1,3,11,15,15-pentamethyl-8-oxatetracyclo[8.8.0.0^2,7.0^11,16]octadeca-2,4,6-triene] as the compound, how does the “Scoring: percent (%) activation” value read?
Answer: ++ (≧50% but <65%)

Question: `COc1cc(C(=O)O)cc2c1[C@]1(C)CC[C@H]3C(C)(C)CCC[C@]3(C)[C@H]1CS2(=O)=O` [compound 80, (1R,10R,11S,16S)-3-methoxy-1,11,15,15-tetramethyl-8,8-dioxo-8λ^6-thiatetracyclo[8.8.0.0^2,7.0^11,16]octadeca-2,4,6-triene-5-carboxylic acid] was tested. Which “Scoring: percent (%) activation” value did it give?
Answer: + (<50%)

Question: With `COc1cc(OCC(=O)O)cc2c1[C@]1(C)CC[C@H]3C(C)(C)CCC[C@]3(C)[C@H]1CS2(=O)=O` [compound 104, 2-{[(1R,10R,11S,16S)-3-methoxy-1,11,15,15-tetramethyl-8,8-dioxo-8^6-thiatetracyclo[8.8.0.0^2,7.0^11,16]octadeca-2,4,6-trien-5-yl]oxy}acetic acid] as the compound, how does the “Scoring: percent (%) activation” value read?
Answer: + (<50%)

Question: Which “Scoring: percent (%) activation” value does the source give for `COc1cc(O)c2c(c1)OC[C@@H]1[C@@]3(C)CCCC(C)(C)[C@@H]3CC[C@@]21C` [Compound No. 39, (1R,10R,11S,16S)-5-methoxy-1,11,15,15-tetramethyl-8-oxatetracyclo[8.8.0.0^2,7.0^11,16]octadeca-2,4,6-trien-3-ol] here?
Answer: ++ (≧50% but <65%)
